One data set has as its target CYP1A (Homo sapiens, UniProt P05177). Kind of data set: CYP1A inhibition, human liver microsomes, ethoxyresorufin. The data set is classed as in vitro ADME. As for the experimental part: Six test compound concentrations (0.05, 0.25, 0.5, 2.5, 5, 25 μM in DMSO; final DMSO concentration=0.35%) were incubated with human liver microsomes (0.25 mg/mL) and NADPH (1 mM) in the presence of the probe substrate ethoxyresorufin (0.5 μM) for 5 min at 37° C. The selective CYP1A inhibitor, alpha-naphthoflavone, was screened alongside the test compounds as a positive control.
(§1) For the CYP1A incubations, the reactions were terminated by the addition of methanol, and the formation of the metabolite, resorufin, was monitored by fluorescence (excitation wavelength=535 nm, emission wavelength=595 nm). For the CYP2C9, CYP2C19, CYP2D6, and CYP3A4 incubations, the reactions were terminated by the addition of methanol containing internal standard. The samples were then centrifuged, and the supernatants were combined, for the simultaneous analysis of 4-hydroxytolbutamide, 4-hydroxymephenyloin, dextrorphan, and 1-hydroxymidazolam plus internal standard by LC-MS/MS using generic LC-MS/MS conditions. Formic acid in deionised water (final concentration=0.1%) was added to the final sample prior to analysis.
(Liver microsomes are a subcellular fraction often used to study metabolism.)

The target in data set [1] is T1, CYP2C19 (Homo sapiens (Human), UniProt P33261). Nature of the data set: CYP2C19 inhibition, human liver microsomes, mephenyloin. The data set is classed as in vitro ADME. How it is done:
Six test compound concentrations (0.05, 0.25, 0.5, 2.5, 5, 25 μM in DMSO; final DMSO concentration=0.25%) were incubated with human liver microsomes (0.5 mg/mL) and NADPH (1 mM) in the presence of the probe substrate mephenyloin (25 μM) for 60 min at 37° C. The selective CYP2C19 inhibitor, tranylcypromine, was screened alongside the test compounds as a positive control.
as §1

Data set [2] has as its target T2, CYP2C9 (Homo sapiens (Human), UniProt P11712). Kind of data set: CYP2C9 inhibition, human liver microsomes, tolbutamide. The data set is classed as in vitro ADME. As for the experimental part: Six test compound concentrations (0.05, 0.25, 0.5, 2.5, 5, 25 μM in DMSO; final DMSO concentration=0.25%) were incubated with human liver microsomes (1 mg/mL) and NADPH (1 mM) in the presence of the probe substrate tolbutamide (120 μM) for 60 min at 37° C. The selective CYP2C9 inhibitor, sulphaphenazole, was screened alongside the test compounds as a positive control.
as §1

For data set [3], the target named is T3, CYP2D6 (Homo sapiens (Human), UniProt P10635). Kind of data set: CYP2D6 inhibition, human liver microsomes, dextromethorphan. The data set is classed as in vitro ADME. As for the experimental part: Six test compound concentrations (0.05, 0.25, 0.5, 2.5, 5, 25 μM in DMSO; final DMSO concentration=0.25%) were incubated with human liver microsomes (0.5 mg/mL) and NADPH (1 mM) in the presence of the probe substrate dextromethorphan (5 μM) for 30 min at 37° C. The selective CYP2D6 inhibitor, quinidine, was screened alongside the test compounds as a positive control.
T3 sequence (P10635 whole entry): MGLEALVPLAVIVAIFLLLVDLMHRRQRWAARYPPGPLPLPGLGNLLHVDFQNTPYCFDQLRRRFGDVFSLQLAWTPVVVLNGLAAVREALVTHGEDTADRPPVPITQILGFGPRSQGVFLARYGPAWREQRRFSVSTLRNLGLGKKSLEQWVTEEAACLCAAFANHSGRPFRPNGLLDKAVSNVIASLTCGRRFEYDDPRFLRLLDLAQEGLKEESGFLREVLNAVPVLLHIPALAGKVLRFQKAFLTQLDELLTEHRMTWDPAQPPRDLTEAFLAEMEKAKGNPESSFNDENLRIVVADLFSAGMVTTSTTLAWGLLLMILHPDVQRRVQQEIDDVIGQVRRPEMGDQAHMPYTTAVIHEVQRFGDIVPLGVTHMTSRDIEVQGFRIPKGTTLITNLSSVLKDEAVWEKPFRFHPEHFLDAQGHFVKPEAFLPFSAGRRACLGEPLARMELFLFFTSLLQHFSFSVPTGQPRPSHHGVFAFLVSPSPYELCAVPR
as §1

Data set [4] addresses T4, CYP3A4 (Homo sapiens (Human), UniProt P08684). Nature of the data set: CYP3A4 inhibition, human liver microsomes, midazolam. The conditions noted are these: human liver microsomes. Type of data set: in vitro ADME. As for the experimental part:
Six test compound concentrations (0.05, 0.25, 0.5, 2.5, 5, 25 μM in DMSO; final DMSO concentration 0.26%) were incubated with human liver microsomes (0.25 mg/mL) and NADPH (1 mM) in the presence of the probe substrate midazolam (2.5 μM) for 5 min at 37° C. The selective CYP3A4 inhibitor, ketoconazole, was screened alongside the test compounds as a positive control.
as §1

Data set [5] deals with T1, CYP2C19. Nature of the data set: Cytochrome P450 substrate identification (Bactosomes) CYP2C19. Type of data set: in vitro ADME. The conditions noted are these: pH 7.4, 5 μM test compound, up to 45 min, read-out: half life in the presence of CYP2C19. How it is done:
(§2) cDNA expressed human CYP450 enzyme preparations co-expressed with human NADPH cytochrome P450 reductase (Bactosomes™) were supplied by Cypex Ltd. Bactosomes™ (final P450 concentration CYP1A2 100 pmol/mL, CYP2C8 50 pmol/mL, CYP2C9 25 pmol/mL, CYP2C19 100 pmol/mL, CYP2D6 50 pmol/mL and CYP3A4 25 pmol/mL), 0.1M phosphate buffer pH7.4 and test compound (final substrate concentration=5 μM; final DMSO concentration=0.25%) were pre-incubated at 37° C. prior to the addition of NADPH (final concentration=1 mM) to initiate the reaction. Incubations were also performed using control bactosomes (no P450 enzymes present) to reveal any non-enzymatic degradation. The final incubation volume was 25 μL. Compounds known to be metabolised specifically by each CYP450 isoform were used as control compounds.
(§3) Each compound was incubated singly for 0, 5, 15, 30 and 45 min with each CYP isoform. The reactions were stopped by the addition of 50 μL methanol containing internal standard at the appropriate time points. The incubation plates were centrifuged at 2500 rpm for 20 min at 4° C. to precipitate the protein. Following protein precipitation, the sample supernatants were combined in cassettes of up to four compounds and analysed using generic LC-MS/MS conditions.
(§4) The In peak area ratio (which has been corrected for any loss in the incubations with the control bactosomes) was plotted against time and the gradient of the line determined.
(§5) The elimination rate constant (k)=(−gradient)

The target in a further data set is CYP2C8 (Homo sapiens (Human), UniProt P10632). Kind of data set: Cytochrome P450 substrate identification (Bactosomes) CYP2C8. The data set is classed as in vitro ADME. The conditions noted are these: pH 7.4, 5 μM test compound, up to 45 min, read-out: half life in the presence of CYP2C8. As for the experimental part: as §2, §3, §4, §5
CYP2C8, sequence (P10632 whole entry): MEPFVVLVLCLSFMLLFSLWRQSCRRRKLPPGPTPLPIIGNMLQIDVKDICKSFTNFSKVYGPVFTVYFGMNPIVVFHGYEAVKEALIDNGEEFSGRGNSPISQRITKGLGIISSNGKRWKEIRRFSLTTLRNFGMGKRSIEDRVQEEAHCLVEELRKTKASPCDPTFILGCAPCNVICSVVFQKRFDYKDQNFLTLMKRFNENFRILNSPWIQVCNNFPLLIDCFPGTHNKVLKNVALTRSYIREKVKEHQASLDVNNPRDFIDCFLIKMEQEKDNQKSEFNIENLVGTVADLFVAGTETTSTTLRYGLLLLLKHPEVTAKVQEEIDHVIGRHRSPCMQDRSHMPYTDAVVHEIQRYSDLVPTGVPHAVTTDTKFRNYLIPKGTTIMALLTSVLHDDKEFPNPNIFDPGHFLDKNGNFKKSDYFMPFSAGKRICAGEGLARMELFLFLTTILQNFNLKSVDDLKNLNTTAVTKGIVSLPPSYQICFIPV
The target of data set [6] is T2, CYP2C9. Nature of the data set: Cytochrome P450 substrate identification (Bactosomes) CYP2C9. The data set is classed as in vitro ADME. The conditions noted are these: pH 7.4, 5 μM test compound, up to 45 min, read-out: half life in the presence of CYP2C9. As for the experimental part: as §2, §3, §4, §5
The target of data set [7] is T3, CYP2D6. Nature of the data set: Cytochrome P450 substrate identification (Bactosomes) CYP2D6. Type of data set: in vitro ADME. The conditions noted are these: pH 7.4, 5 μM test compound, up to 45 min, read-out: half life in the presence of CYP2D6. As for the experimental part:
as §2, §3, §4, §5

Data set [8] deals with T4, CYP3A4. Nature of the data set: Cytochrome P450 substrate identification (Bactosomes) CYP3A4. The data set is classed as in vitro ADME. The conditions noted are these: human, pH 7.4; Bactosomes, 5 μM test compound, up to 45 min; read-out: half life in the presence of CYP3A4. As for the experimental part:
as §2, §3, §4, §5

For another data set, the system named is Mcl-1. Kind of data set: Mcl-1 downregulation in H460 cells by Western blotting. The conditions noted are these: H460 cells, 24 hours, top concentration close to IC50. Type of data set: cell-based. As for the experimental part:
The media was removed and the adherent cells washed with 5 ml PBS. […] Proteins were transferred to nitrocellulose membranes (Schleicher & Schuell, Dassel, Germany) using wet electrophoretic transfer. Membranes were stained with Ponceau S to confirm equal loading before blocking in 5% nonfat milk in PBS with 0.05% Tween 20 (PBSTM) for 2 hours. Membranes were incubated overnight at 4° C. with primary antibody (rabbit polyclonal antibody to Mcl-1, Santa Cruz), diluted 1:1000 in PBSTM. Membranes were washed 2×5 minute followed by 2×10 minute in PBS and 0.05% Tween 20 (PBST) and incubated for 1 hour in PBSTM containing horseradish peroxidase-conjugated secondary antibody. Membranes were washed as before and incubated with enhanced chemiluminescence solution (Amersham) and exposed to X-ray film (Amersham).
In a second experiment the effect of additional compounds on Mcl-1 levels was investigated.
For orientation: In western blotting, separated proteins are transferred to a membrane and probed.

Molecules are shown by their SMILES. A value given as a limit tells only on which side of the number the result lay.

CYP1A, sequence (P05177 2-516 limits assumed): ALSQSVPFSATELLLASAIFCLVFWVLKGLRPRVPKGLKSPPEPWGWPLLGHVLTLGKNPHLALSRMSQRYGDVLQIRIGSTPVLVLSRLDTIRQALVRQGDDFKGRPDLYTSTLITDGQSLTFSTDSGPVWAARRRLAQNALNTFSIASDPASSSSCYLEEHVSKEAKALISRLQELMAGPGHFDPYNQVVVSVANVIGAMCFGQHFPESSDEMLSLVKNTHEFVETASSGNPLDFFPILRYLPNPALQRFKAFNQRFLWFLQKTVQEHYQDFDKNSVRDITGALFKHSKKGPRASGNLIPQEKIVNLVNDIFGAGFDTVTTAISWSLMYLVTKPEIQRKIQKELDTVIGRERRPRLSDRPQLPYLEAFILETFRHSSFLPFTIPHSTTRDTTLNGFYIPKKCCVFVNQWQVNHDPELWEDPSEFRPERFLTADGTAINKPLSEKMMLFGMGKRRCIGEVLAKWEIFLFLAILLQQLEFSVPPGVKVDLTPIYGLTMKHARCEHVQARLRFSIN
T2 sequence (P11712 whole entry): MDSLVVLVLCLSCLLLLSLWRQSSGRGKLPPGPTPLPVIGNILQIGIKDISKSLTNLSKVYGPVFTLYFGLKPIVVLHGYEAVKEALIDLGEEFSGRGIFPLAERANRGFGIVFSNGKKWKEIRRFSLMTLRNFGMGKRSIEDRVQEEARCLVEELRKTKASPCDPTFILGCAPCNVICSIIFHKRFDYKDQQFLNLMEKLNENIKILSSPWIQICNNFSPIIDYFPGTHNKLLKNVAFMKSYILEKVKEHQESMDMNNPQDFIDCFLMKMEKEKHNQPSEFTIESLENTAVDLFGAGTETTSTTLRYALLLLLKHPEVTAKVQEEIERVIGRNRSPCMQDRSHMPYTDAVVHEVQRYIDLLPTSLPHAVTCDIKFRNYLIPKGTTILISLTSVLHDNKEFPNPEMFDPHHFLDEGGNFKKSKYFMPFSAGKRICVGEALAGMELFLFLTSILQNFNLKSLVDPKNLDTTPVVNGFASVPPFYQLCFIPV
T4 sequence (P08684 whole entry): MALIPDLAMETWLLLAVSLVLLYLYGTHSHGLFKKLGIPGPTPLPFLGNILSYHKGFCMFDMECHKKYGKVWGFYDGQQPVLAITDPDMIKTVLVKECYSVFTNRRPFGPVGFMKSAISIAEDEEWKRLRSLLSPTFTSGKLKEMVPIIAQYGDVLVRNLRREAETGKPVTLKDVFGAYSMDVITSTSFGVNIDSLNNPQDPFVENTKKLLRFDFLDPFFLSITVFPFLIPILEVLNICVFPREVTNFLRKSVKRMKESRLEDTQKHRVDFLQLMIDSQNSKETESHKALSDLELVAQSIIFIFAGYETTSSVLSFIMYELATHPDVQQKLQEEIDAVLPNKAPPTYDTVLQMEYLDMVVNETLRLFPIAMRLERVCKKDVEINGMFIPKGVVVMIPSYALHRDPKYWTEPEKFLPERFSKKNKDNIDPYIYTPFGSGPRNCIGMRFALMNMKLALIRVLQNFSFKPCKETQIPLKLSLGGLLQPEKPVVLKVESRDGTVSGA
T1 sequence (P33261 whole entry): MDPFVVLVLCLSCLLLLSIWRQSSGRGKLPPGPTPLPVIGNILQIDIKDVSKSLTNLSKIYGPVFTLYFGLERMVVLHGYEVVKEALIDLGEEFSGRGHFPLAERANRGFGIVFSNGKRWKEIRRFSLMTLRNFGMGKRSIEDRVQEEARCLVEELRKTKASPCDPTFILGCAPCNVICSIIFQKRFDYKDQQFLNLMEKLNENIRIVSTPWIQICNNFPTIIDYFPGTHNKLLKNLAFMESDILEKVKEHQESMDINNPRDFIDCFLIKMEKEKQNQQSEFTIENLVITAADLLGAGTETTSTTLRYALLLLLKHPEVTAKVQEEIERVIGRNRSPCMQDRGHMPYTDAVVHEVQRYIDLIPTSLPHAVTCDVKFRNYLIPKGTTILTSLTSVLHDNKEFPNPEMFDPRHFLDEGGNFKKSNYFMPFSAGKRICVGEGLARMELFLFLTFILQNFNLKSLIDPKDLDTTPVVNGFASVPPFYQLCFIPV

As usually defined, the IC50 is the point on the concentration scale where inhibition reaches its midpoint. For orientation: half-life means how long it takes for the measured level to halve. `CC[C@@H](Nc1nc(NCc2cccnc2)c2ncn(C(C)C)c2n1)C(C)(C)O` [Compound [A1]] had a concentration for half-maximal inhibition (IC50) at 5 min on CYP1A greater than 25 µM. Also, the concentration for half-maximal inhibition (IC50) against CYP2C19 [1] was 19.9 µM; on CYP2C9 [2], greater than 25 µM; against CYP2D6 [3], greater than 25 µM; against CYP3A4 [4], 1.63 µM. Further, the half-life at 5 μM at CYP2C19 [5] is 58.3 min; at CYP2C8, greater than 45 min; at CYP2C9 [6] it was greater than 45 min; on CYP2D6 [7], greater than 45 min; on CYP3A4 [8], 28.3 min.
With `CC[C@H](CO)Nc1nc(NCc2ccccc2)c2ncn(C(C)C)c2n1` [Seliciclib, seliciclib, reference compound], the “changes in Mcl-1 levels (in words)” value in the data set on Mcl-1 is “very modest changes”.
For `CC[C@H](Nc1nc(NCc2cccnc2)c2ncn(C(C)C)c2n1)C(C)(C)O` [[A2]], the IC50 at 5 min on CYP1A is greater than 25 µM. The concentration for half-maximal inhibition (IC50) against CYP2C19 [1] was greater than 25 µM; on CYP2C9 [2] it was greater than 25 µM; against CYP2D6 [3], greater than 25 µM; against CYP3A4 [4] it was 0.48 µM. Also, the half-life at 5 μM was greater than 45 min on CYP2C19 [5]; greater than 45 min on CYP2C8; greater than 45 min on CYP2C9 [6]; greater than 45 min at CYP2D6 [7]; 32.6 min on CYP3A4 [8].
`CC[C@H](Nc1nc(NCc2cccnc2)c2ncn(C(C)C)c2n1)[C@@H](C)O` [[A3]] displayed a concentration for half-maximal inhibition (IC50) at 5 min at CYP1A greater than 25 µM. Further, the IC50 on CYP2C19 [1] was greater than 25 µM; against CYP2C9 [2], greater than 25 µM; against CYP2D6 [3], greater than 25 µM; on CYP3A4 [4], 1.88 µM. The half-life at 5 μM at CYP2C19 [5] is greater than 45 min; on CYP2C8 it was greater than 45 min; on CYP2C9 [6], greater than 45 min; at CYP2D6 [7], greater than 45 min; at CYP3A4 [8], 18 min.

(Values after patent US8592581B2, “Trisubstituted purine derivatives” (Cyclacel Limited, priority 2007, dated 2013).)
